Measured values taken from patent US10597388B2, “Pyridazinone herbicides” (FMC CORPORATION, priority 2014, dated 2020).

How the values were obtained:
Assay in all cases: Test D controlled growth environment herbicide test, pre- and postemergence
Format in all cases: in vivo
[1] = system: bromegrass, downy (downy bromegrass, Bromus tectorum)
Summary of the method: (§1)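 Rating is visual, 0–100 scale (100 = complete control), made against untreated plants 14–21 d after treatment in controlled growth conditions. Postemergence sprays went onto 1- to 4-leaf plants in peat medium; preemergence sprays onto silt loam after sowing; formulation included a surfactant.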

[2] = system: field violet (Viola arvensis)
Summary of the method: as §1

[3] = system: blackgrass (Alopecurus myosuroides)
Summary of the method: as §1

kochia (Kochia scoparia) = system: kochia (Kochia scoparia)
Summary of the method: as §1

[4] = system: ryegrass, Italian (Italian ryegrass, Lolium multiflorum)
Summary of the method: as §1

[5] = system: chickweed (common chickweed, Stellaria media)
Summary of the method: as §1

[6] = system: lambsquarters (Chenopodium album)
Summary of the method: as §1

[7] = system: speedwell (bird's-eye speedwell, Veronica persica)
Summary of the method: as §1

[8] = system: deadnettle (henbit deadnettle, Lamium amplexicaule)
Summary of the method: as §1

[9] = system: chamomile (scentless chamomile, Matricaria inodora)
Summary of the method: as §1

[10] = system: windgrass (Apera spica-venti)
Summary of the method: as §1

[11] = system: wheat, winter (winter wheat, Triticum aestivum)
Summary of the method: as §1

[12] = system: radish, wild (wild radish, Raphanus raphanistrum)
Summary of the method: as §1

[13] = Postemergence, 31 g ai/ha, scale 0 to 100 (0 no effect, 100 complete control)
[14] = Postemergence, 125 g ai/ha, visual rating on scale 0 (no effect) to 100 (complete control), 14 to 21 d
[15] = Postemergence, 250 g ai/ha, scale 0 to 100 (0 no effect, 100 complete control)
[16] = Preemergence, 62 g ai/ha, scale 0 to 100 (0 no effect, 100 complete control)
[17] = Preemergence, 125 g ai/ha, scale 0 to 100 (0 no effect, 100 complete control)
[18] = Preemergence, 250 g ai/ha, scale 0 to 100, 0 no effect, 100 complete control
[19] = postemergence, 62 g ai/ha, scale 0 to 100, 0 no effect, 100 complete control

Cc1nn(C)c(=O)c(-c2cccc3ccccc23)c1O [Compound 11, 5-hydroxy-2,6-dimethyl-4-(1-naphthalenyl)-3(2H)-pyridazinone]
55: Plant response rating, Bromegrass, Downy [1, 18] | Plant response rating, Blackgrass [3, 17] | Plant response rating, Windgrass [10, 17]
80: Ryegrass, Italian plant response rating [4, 13] | Plant response rating, Chickweed [5, 14] | Plant response rating, Lambsquarters [6, 14] | Plant response rating, Lambsquarters [6, 19]
45: Chickweed plant response rating [5, 13]
65: Field Violet plant response rating [2, 13] | Plant response rating, Field Violet [2, 19] | Plant response rating, Chamomile [9, 19]
60: Kochia plant response rating (kochia (Kochia scoparia); [13]) | Lambsquarters plant response rating [6, 13] | Plant response rating, Radish, Wild [12, 14]
95: Plant response rating, Kochia (kochia (Kochia scoparia); [18])
40: Plant response rating, Blackgrass [3, 19] | Plant response rating, Kochia (kochia (Kochia scoparia); [16]) | Chamomile plant response rating [9, 13]
50: Plant response rating, Bromegrass, Downy [1, 15] | Plant response rating, Deadnettle [8, 17] | Radish, Wild plant response rating [12, 13]
15: Bromegrass, Downy plant response rating [1, 13] | Plant response rating, Bromegrass, Downy [1, 19] | Plant response rating, Speedwell [7, 16] | Plant response rating, Deadnettle [8, 16] | Plant response rating, Windgrass [10, 14] | Plant response rating, Wheat, Winter [11, 14] | Plant response rating, Wheat, Winter [11, 19] | Plant response rating, Radish, Wild [12, 16]
75: Plant response rating, Field Violet [2, 14] | Blackgrass plant response rating [3, 18] | Plant response rating, Kochia (kochia (Kochia scoparia); [17]) | Plant response rating, Kochia (kochia (Kochia scoparia); [19]) | Deadnettle plant response rating [8, 13] | Plant response rating, Chamomile [9, 14] | Plant response rating, Windgrass [10, 18]
70: Plant response rating, Blackgrass [3, 14] | Plant response rating, Blackgrass [3, 15]
20: Plant response rating, Bromegrass, Downy [1, 17] | Plant response rating (scale of 0 to 100), Chickweed ([5]; Preemergence, 31 g ai/ha) | Plant response rating, Windgrass [10, 15] | Plant response rating, Wheat, Winter [11, 17] | Plant response rating, Radish, Wild [12, 17]
85: Plant response rating (scale of 0 to 100), Field Violet ([2]; Preemergence, 31 g ai/ha) | Plant response rating, Kochia (kochia (Kochia scoparia); [14]) | Plant response rating, Ryegrass, Italian [4, 14] | Plant response rating (scale of 0 to 100), Ryegrass, Italian ([4]; Preemergence, 31 g ai/ha) | Plant response rating, Ryegrass, Italian [4, 19] | Plant response rating, Lambsquarters [6, 15] | Plant response rating, Speedwell [7, 17] | Plant response rating, Radish, Wild [12, 15]
35: Plant response rating, Lambsquarters [6, 16] | Plant response rating, Windgrass [10, 16]
25: Plant response rating, Bromegrass, Downy [1, 14] | Blackgrass plant response rating [3, 13] | Plant response rating (scale of 0 to 100), Lambsquarters ([6]; Preemergence, 31 g ai/ha) | Plant response rating (scale of 0 to 100), Windgrass ([10]; Preemergence, 31 g ai/ha) | Plant response rating, Wheat, Winter [11, 15] | Plant response rating, Radish, Wild [12, 18]
30: Plant response rating, Blackgrass [3, 16] | Plant response rating, Wheat, Winter [11, 18] | Plant response rating, Radish, Wild [12, 19]
5: Plant response rating (scale of 0 to 100), Bromegrass, Downy ([1]; Preemergence, 31 g ai/ha) | Plant response rating, Bromegrass, Downy [1, 16] | Plant response rating (scale of 0 to 100), Blackgrass ([3]; Preemergence, 31 g ai/ha)
90: Plant response rating, Field Violet [2, 15] | Plant response rating, Ryegrass, Italian [4, 15] | Plant response rating, Ryegrass, Italian [4, 16] | Plant response rating, Chickweed [5, 19] | Plant response rating, Chamomile [9, 15]
100: Plant response rating, Field Violet [2, 16] | Plant response rating, Field Violet [2, 17] | Plant response rating, Field Violet [2, 18] | Plant response rating, Kochia (kochia (Kochia scoparia); [15]) | Plant response rating, Ryegrass, Italian [4, 17] | Plant response rating, Ryegrass, Italian [4, 18] | Plant response rating, Chickweed [5, 15] | Plant response rating, Chickweed [5, 16] | Plant response rating, Chickweed [5, 17] | Plant response rating, Chickweed [5, 18] | Plant response rating, Lambsquarters [6, 17] | Plant response rating, Lambsquarters [6, 18] | Plant response rating, Speedwell [7, 14] | Plant response rating, Speedwell [7, 15] | Plant response rating, Speedwell [7, 18] | Plant response rating, Speedwell [7, 19] | Plant response rating, Deadnettle [8, 14] | Plant response rating, Deadnettle [8, 15] | Plant response rating, Deadnettle [8, 18] | Plant response rating, Deadnettle [8, 19]
0: Speedwell plant response rating [7, 13] | Plant response rating (scale of 0 to 100), Speedwell ([7]; Preemergence, 31 g ai/ha) | Plant response rating (scale of 0 to 100), Wheat, Winter ([11]; Preemergence, 31 g ai/ha) | Plant response rating, Wheat, Winter [11, 16]
10: Plant response rating (scale of 0 to 100), Kochia (kochia (Kochia scoparia); Preemergence, 31 g ai/ha) | Plant response rating (scale of 0 to 100), Deadnettle ([8]; Preemergence, 31 g ai/ha) | Windgrass plant response rating [10, 13] | Plant response rating, Windgrass [10, 19] | Wheat, Winter plant response rating [11, 13] | Plant response rating (scale of 0 to 100), Radish, Wild ([12]; Preemergence, 31 g ai/ha)
